A value given as a limit tells only on which side of the number the result lay.

Sequence of Mcl-1 (Q07820 172-327): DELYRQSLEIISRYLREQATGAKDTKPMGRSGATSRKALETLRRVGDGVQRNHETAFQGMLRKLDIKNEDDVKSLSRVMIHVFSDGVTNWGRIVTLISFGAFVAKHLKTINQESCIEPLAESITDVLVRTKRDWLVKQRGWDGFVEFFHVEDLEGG

The target of the first test is Mcl-1 (Homo sapiens (Human), UniProt Q07820). The test is described as follows: Fluorescence polarization competition assay (FPCA), Mcl-1 / FITC-Bak BH3 peptide. The following applies: FPCA with FITC-Bak; Ki from IC50 by Nikolovska-Coleska equation; read-out: Mcl-1 Ki. It counts as binding. From the text:
The tagged protein was initially purified from the crude cell lysate by immobilized metal affinity chromatography (IMAC) chromatography (GE Healthcare Life Sciences), and after dialysis to remove the imidazole the affinity tag was cleaved using PreScission Protease (GE Healthcare Life Sciences). A Sephacryl S-200 size exclusion column was used as a final purification step before the protein was concentrated with a 10,000 MWCO centifugal filter concentrator (Millipore).
Fluorescence polarization experiments were conducted using a BMG PHERAstar FS multimode microplate reader equipped with two PMTs for simultaneous measurements of the perpendicular and parallel fluorescence emission. The assays were performed in black polypropylene 384-well microplate (Costar) with a final volume of 20 microliter. […] Regression analysis was carried out using Origin (OriginLab, Northampton, Mass.) to fit the data to the Hill equation (1) to determine the initial binding affinity (KD) and the IC50 in the FPCA. For the fluorescence polarization competition titrations, an equation derived by Nikolovska-Coleska et al. was used to calculate the Ki from the IC50 data.
The target molecules were assayed for their abilities to disrupt the Mcl-1-Bak-BH3 PPI in a fluorescence polarization competition (FPC) assay with Mcl-1 and FITC-labeled Bak-BH3 peptide. Further details on the FPC assay can be found in the Supporting Information.
In general, Ki refers to the dissociation constant of the complex between target and ligand, obtained from inhibition or displacement. `CC(C)CN(c1ccc(C(=O)Oc2ccccc2)c(O)c1)S(=O)(=O)c1ccc(Oc2ccccc2)cc1` [LC-4-134 21]: the Ki was more than 500 µM.

Consider `CC(C)CN(c1ccc(C(=O)O)c(O)c1)S(=O)(=O)c1ccc(F)cc1` [LC-5-025 13ad], for which the Ki came to 99.4 ± 9.37 µM.

With `O=C(O)c1cc(S(=O)(=O)Nc2ccc(-c3ccccc3)cc2)c2ccccc2c1O` [Compound 3t, 4-(N-([1,1′-Biphenyl]-4-yl)sulfamoyl)-1-hydroxy-2-naphthoic Acid], the inhibition constant (Ki) came out at 1.54 ± 0.46 µM.

Take `O=C(O)c1cc(S(=O)(=O)Nc2cccc(-c3ccccc3)c2)c2ccccc2c1O` [Compound 3s, 4-(N-([1,1′-Biphenyl]-3-yl)sulfamoyl)-1-hydroxy-2-naphthoic Acid]: the Ki amounted to 1.88 ± 0.62 µM.

Consider `O=C(O)c1ccc2c(c1)CCCN2S(=O)(=O)c1ccc(F)cc1` [LC-3-010, 1-((4-fluorophenyl)sulfonyl)-1,2,3,4-tetrahydroquinoline-6-carboxylic acid], for which the Ki was more than 1000 µM.

For the compound `O=C(O)c1cc(S(=O)(=O)N2CCN(Cc3ccccc3)CC2)c2ccccc2c1O` [Compound 3k, 4-((4-Benzylpiperazin-1-yl)sulfonyl)-1-hydroxy-2-naphthoic Acid], the Ki was found to be 3.41 ± 0.37 µM.

On to `CC(C)CN(c1ccc(C(=O)NO)c(O)c1)S(=O)(=O)c1ccc(Oc2ccccc2)cc1` [LC-5-061 25], for which the inhibition constant (Ki) is 71 ± 5.8 µM.

As to `O=C(O)c1cc(S(=O)(=O)Nc2ccc(Oc3ccc(Cl)cc3)cc2)c2ccccc2c1O` [Compound 3bh, 4-(N-(4-(4-Chlorophenoxy)phenyl)sulfamoyl)-1-hydroxy-2-naphthoic Acid], the Ki is 0.173 µM.

As to `Cc1ccc(Oc2ccc(S(=O)(=O)N(CC(C)C)c3ccc(C(=O)O)c(O)c3)cc2)cc1` [LC-4-119 13ah], the inhibition constant Ki amounted to 2.25 ± 0.168 µM.

In the case of `Cc1ccc(S(=O)(=O)N(CC(C)C)c2ccc(C(=O)O)c(O)c2)cc1` [4jc117-2 13af], the Ki is 61.2 ± 4.49 µM.

`CC(C)Oc1ccc(NS(=O)(=O)c2cc(C(=O)O)c(O)c3ccccc23)cc1` [Compound 3aa, 1-Hydroxy-4-(N-(4-isopropoxyphenyl)sulfamoyl)-2-naphthoic Acid]: the Ki worked out at 54 ± 4.6 µM.

Take `N#Cc1ccc(NS(=O)(=O)c2cc(C(=O)O)c(O)c3ccccc23)cc1` [Compound 3ab, 4-(N-(4-Cyanophenyl)sulfamoyl)-1-hydroxy-2-naphthoic Acid]: the Ki stood at 22.2 ± 1.6 µM.

For the compound `O=C(O)c1cc(S(=O)(=O)Nc2ccccc2Br)c2ccccc2c1O` [Compound 3m, 4-(N-(2-bromophenyl)sulfamoyl)-1-hydroxy-2-naphthoic Acid], the Ki came to 6.84 ± 2.23 µM.

As for `CC(C)c1ccc(NS(=O)(=O)c2cc(C(=O)O)c(O)c3ccccc23)cc1` [Compound 3y, 1-Hydroxy-4-(N-(4-isopropylphenyl)sulfamoyl)-2-naphthoic Acid], the Ki stood at 3.86 ± 1.53 µM.

The same test, now with this note: fluorescence polarization competition assay; read-out: Ki (μM) Mcl-1.
For the compound `CC(C)CN(c1ccc(C(=O)O)c(O)c1)S(=O)(=O)c1ccc(-c2ccccc2)cc1` [Compound 4jc117-4, 2-hydroxy-4-(N-isobutyl-[1,1′-biphenyl]-4-ylsulfonamido)benzoic acid], the Ki was 7.87 ± 0.263 µM.

Still in this test, the particulars now being: read-out: Mcl-1 Ki.
With `Cc1cc(Oc2ccc(S(=O)(=O)N3CC(C(=O)O)Cc4ccccc43)cc2)cc(C)c1Cl` (racemic) [SF-5-141, (±)-1-((4-(4-chloro-3,5-dimethylphenoxy)phenyl)sulfonyl)-1,2,3,4-tetrahydroquinoline-3-carboxylic acid], the Ki is 0.286 µM.

With `O=C(O)C1Cc2ccccc2N(S(=O)(=O)c2ccc3ccccc3c2)C1` (racemic) [SF-5-134, (±)-1-(naphthalen-2-ylsulfonyl)-1,2,3,4-tetrahydroquinoline-3-carboxylic acid], the Ki was 30 µM.

Still in this test, the particulars now being: ΔG=−RTlnKi from experimental Ki.
Take `O=C(O)c1cc(S(=O)(=O)Nc2ccc(Cl)cc2)c2ccccc2c1O` [3v; 5JC67]: the “Mcl-1 Exp ΔG” value is -7.80 kcal/mol.

As to `O=C(O)c1cc(S(=O)(=O)Nc2ccccc2)c2ccccc2c1O` [3l; SF-5-311], the “Mcl-1 Exp ΔG” value is -5.42 kcal/mol.

For the compound `CC(C)Oc1ccc(NS(=O)(=O)c2cc(C(=O)O)c(O)c3ccccc23)cc1` [3aa; SF-5-293], the “Mcl-1 Exp ΔG” value is -5.82 kcal/mol.

The values above are taken from patent US10858316B2, “Small molecule inhibitors of the MCL-1 oncoprotein and uses thereof” (University of Maryland, Baltimore, priority 2015, dated 2020).
